# Experimental data taken from patent publication EP4667464A1 (Cyrus Therapeutics Inc., priority 2023, dated 2024).
# Read-outs that look alike come from different tables or passages of the source.
# How the values were obtained:
# [1] = molecular target: T1, KRAS G12C::SOS1 (Homo sapiens, UniProt Q07889); test: KRAS G12C::SOS1 protein-protein interaction (PPI) inhibition assay (HTRF); type: binding
# T1 construct: purchased CISBIO 64KRASG12PEH
# T1 sequence (Q07889 1-1333): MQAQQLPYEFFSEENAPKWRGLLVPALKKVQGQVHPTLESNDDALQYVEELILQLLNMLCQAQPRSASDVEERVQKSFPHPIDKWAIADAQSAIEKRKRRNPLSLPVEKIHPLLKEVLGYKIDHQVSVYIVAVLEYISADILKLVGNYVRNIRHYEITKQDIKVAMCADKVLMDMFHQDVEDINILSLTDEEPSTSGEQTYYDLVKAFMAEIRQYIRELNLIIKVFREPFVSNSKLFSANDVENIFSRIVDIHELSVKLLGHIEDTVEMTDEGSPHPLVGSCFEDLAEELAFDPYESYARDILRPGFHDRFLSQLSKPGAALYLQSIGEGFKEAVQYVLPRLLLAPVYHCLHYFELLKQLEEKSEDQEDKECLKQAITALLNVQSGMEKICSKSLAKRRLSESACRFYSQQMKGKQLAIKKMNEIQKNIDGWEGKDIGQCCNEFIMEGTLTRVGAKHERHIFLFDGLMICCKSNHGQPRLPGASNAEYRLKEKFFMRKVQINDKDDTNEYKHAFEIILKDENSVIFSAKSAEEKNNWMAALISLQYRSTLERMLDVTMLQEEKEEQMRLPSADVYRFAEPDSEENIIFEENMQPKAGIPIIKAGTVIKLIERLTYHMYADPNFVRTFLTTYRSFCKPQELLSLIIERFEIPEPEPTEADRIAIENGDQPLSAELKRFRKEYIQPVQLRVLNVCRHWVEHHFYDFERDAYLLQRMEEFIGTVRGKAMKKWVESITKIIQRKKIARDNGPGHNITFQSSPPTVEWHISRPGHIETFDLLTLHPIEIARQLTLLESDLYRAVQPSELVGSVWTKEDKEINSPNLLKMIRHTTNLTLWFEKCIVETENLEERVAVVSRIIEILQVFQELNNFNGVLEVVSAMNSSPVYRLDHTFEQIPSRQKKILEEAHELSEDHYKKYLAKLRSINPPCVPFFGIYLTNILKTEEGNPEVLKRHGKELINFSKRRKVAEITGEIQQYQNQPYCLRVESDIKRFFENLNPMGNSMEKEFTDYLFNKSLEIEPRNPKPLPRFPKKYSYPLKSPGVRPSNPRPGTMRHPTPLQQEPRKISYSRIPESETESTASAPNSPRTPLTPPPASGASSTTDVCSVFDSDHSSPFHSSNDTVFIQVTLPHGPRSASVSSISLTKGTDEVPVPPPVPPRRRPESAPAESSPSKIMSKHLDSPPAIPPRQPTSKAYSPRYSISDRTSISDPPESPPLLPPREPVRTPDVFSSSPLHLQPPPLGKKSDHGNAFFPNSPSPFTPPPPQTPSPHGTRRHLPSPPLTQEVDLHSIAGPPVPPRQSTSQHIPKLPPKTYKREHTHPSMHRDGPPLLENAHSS
# In short: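 Compounds, at eight 3-fold dilutions from 3 µM, were mixed with GTP-loaded Tag1-KRAS G12C, Tag2-SOS1 and a terbium-cryptate donor plus XL665 acceptor antibody pair. After 2 h at room temperature, time-resolved FRET reported the KRAS–SOS1 interaction.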
# [2] = molecular target: T2, SOS1 (Homo sapiens, UniProt Q07889); test: SOS-catalyzed nucleotide exchange assay (HTRF, SOS1-mediated GTP loading of KRAS G12D); type: biochemical
# T2 construct: HIS-SOS1cat (160 nM; Cytoskeleton, US); His (N); purchased Cytoskeleton
# T2 sequence (Q07889 564-1049 limits assumed): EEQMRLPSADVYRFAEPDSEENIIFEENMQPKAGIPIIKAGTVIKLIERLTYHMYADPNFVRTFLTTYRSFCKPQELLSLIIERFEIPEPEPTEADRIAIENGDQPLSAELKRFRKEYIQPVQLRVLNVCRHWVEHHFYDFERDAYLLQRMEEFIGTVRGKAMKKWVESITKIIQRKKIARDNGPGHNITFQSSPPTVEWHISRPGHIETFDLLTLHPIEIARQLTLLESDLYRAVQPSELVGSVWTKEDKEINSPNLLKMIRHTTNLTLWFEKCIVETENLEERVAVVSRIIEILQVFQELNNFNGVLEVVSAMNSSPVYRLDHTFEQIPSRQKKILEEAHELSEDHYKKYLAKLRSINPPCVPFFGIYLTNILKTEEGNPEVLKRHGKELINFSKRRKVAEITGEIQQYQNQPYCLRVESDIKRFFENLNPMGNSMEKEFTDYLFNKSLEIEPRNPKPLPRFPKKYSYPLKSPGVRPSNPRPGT
# [3] = 8 concentrations from 3 µM, three replicates, read-out: KRAS G12C::SOS1 PPI
# [4] = GST-KRAS G12D, HIS-SOS1cat, compound 128 pM to 10 µM, read-out: SOS-catalyzed nucleotide exchange assay
Structure (SMILES),"IC50 [1, 3]","IC50 [2, 4]",IC50 [1],IC50 [2]
"C[C@@H](NC(=O)c1ccc(=O)n(-c2cnc(F)c(-c3cnnn3C)c2)n1)c1cccc(C(F)F)c1F [Example 6-1, N-{(1R)-1-(3-(difluoromethyl)-2-fluorophenyl)ethyl}-1-(6-fluoro-5-(1-methyl-1H-1,2,3-triazol-5-yl)pyridin-3-yl)-6-oxo-1,6-dihydropyridazine-3-carboxamide]",> 150 nM,50 to 150 nM,,
"C[C@@H](NC(=O)c1ccc(=O)n(-c2cncc(-c3cnnn3C)c2)n1)c1cccc(C(F)(F)CO)c1Cl [Example 1-3, N-[(1R)-1-[2-chloro-3-(1,1-difluoro-2-hydroxy-ethyl)phenyl]ethyl]-1-[5-(3-methyltriazol-4-yl)-3-pyridyl]-6-oxo-pyridazine-3-carboxamide]",50 to 150 nM,50 to 150 nM,,
"C[C@@H](NC(=O)c1ccc(=O)n(-c2cncc(-c3cnnn3C3CCNCC3)c2)n1)c1cccc(C(F)(F)F)c1F [Example 20-4, N-[(1R)-1-[2-fluoro-3-(trifluoromethyl)phenyl]ethyl]-6-oxo-1-[5-[3-(4-piperidyl)triazol-4-yl]-3-pyridyl]pyridazine-3-carboxamide]",,,50 to 150 nM,< 50 nM
"C[C@@H](NC(=O)c1ccc(=O)n(-c2cncc(-c3cnnn3[C@@H]3CC3(F)F)c2)n1)c1cccc(C(F)(F)F)c1F [Example 24, 1-[5-[3-[(1R)-2,2-difluorocyclopropyl]triazol-4-yl]-3-pyridyl]-N-[(1R)-1-[2-fluoro-3-(trifluoromethyl)phenyl]ethyl]-6-oxo-pyridazine-3-carboxamide]",,,> 150 nM,50 to 150 nM
"C[C@@H](NC(=O)c1ccc(=O)n(-c2cnnc(-c3cnnn3C)c2)n1)c1cccc(C(F)F)c1F [Example 5, N-[(1R)-1-[2-fluoro-3-(difluoromethyl)phenyl]ethyl]-1-[6-(3-methyltriazol-4-yl)pyridazin-4-yl]-6-oxo-pyridazine-3-carboxamide]",,,> 150 nM,> 150 nM
"[2H]C([2H])(O)C(F)(F)c1cccc([C@@H](C)NC(=O)c2ccc(=O)n(-c3cncc(-c4cnnn4C4CNC4)c3)n2)c1F [Example 20-3, (R)-1-(5-(1-(azetidin-3-yl)-1H-1,2,3-triazol-5-yl)pyridin-3-yl)-N-(1-(3-(1,1-difluoro-2-hydroxyethyl-2,2-dideuterio)-2-fluorophenyl)ethyl)-6-oxo-1,6-dihydropyridazine-3-carboxamide]",,,< 50 nM,< 50 nM
"C[C@@H](NC(=O)c1cc(C(C)(C)O)c(=O)n(-c2cncc(-c3cnnn3C)c2)n1)c1cccc(C(F)(F)F)c1F [Example 1-59, (R)-N-(1-(2-fluoro-3-(trifluoromethyl)phenyl)ethyl)-5-(2-hydroxypropane-2-yl)-1-(5-(1-methyl-1H-1,2,3-triazol-5-yl)pyridin-3-yl)-6-oxo-1,6-dihydropyridazine-3-carboxamide]",50 to 150 nM,< 50 nM,,

# The next lines start with results.
"IC50 [1, 3]","IC50 [2, 4]",Structure (SMILES),IC50 [1],IC50 [2]
< 50 nM,< 50 nM,"C[C@@H](NC(=O)c1ccc(=O)n(-c2cncc(-c3cnnn3[C@@H]3CCNC3)c2)n1)c1cccc(C(F)(F)F)c1F [Example 6-9, N-{(R)-1-[2-fluoro-3-(trifluoromethyl)phenyl]ethyl}-6-oxo-1-(5-(1-((R)-pyrrolidin-3-yl)-1H-1,2,3-triazol-5-yl)pyridin-3-yl)-1,6-dihydropyridazine-3-carboxamide]",,
< 50 nM,< 50 nM,"C[C@@H](NC(=O)c1ccc(=O)n(-c2cncc(-c3cnnn3C3CC3)c2)n1)c1cc(N)cc(C(F)(F)F)c1 [Example 1-56, 1-[5-(1-cyclopropyl-1H-1,2,3-triazol-5-yl)-3-pyridyl]-6-oxo-N-[(1R)-1-[3-amino-5-(trifluoromethyl)phenyl]ethyl]pyridazine-3-carboxamide]",,
< 50 nM,< 50 nM,"C[C@@H](NC(=O)c1ccc(=O)n(-c2cncc(-c3cnnn3C3CCC3)c2)n1)c1cccc(C(F)(F)CO)c1F [Example 1-55, 1-[5-(1-cyclobutyl-1H-1,2,3-triazol-5-yl)-3-pyridyl]-N-[(1R)-1-[3-(1,1-difluoro-2-hydroxy-ethyl)-2-fluoro-phenyl]ethyl]-6-oxo-pyridazine-3-carboxamide]",,
< 50 nM,< 50 nM,"CC(=O)N1CCC(n2nncc2-c2cncc(-n3nc(C(=O)N[C@H](C)c4cccc(C(F)(F)F)c4F)ccc3=O)c2)CC1 [Example 20-7, (R)-1-(5-(1-(1-acetylpiperidin-4-yl)-1H-1,2,3-triazol-5-yl)pyridin-3-yl)-N-(1-(2-fluoro-3-(trifluoromethyl)phenyl)ethyl)-6-oxo-1,6-dihydropyridazine-3-carboxamide]",,
> 150 nM,> 150 nM,"C[C@@H](NC(=O)c1ccc(=O)n(-c2cnnc(-c3ccnn3C)c2)n1)c1cccc(C(F)(F)F)c1F [Example 1-19, N-[(1R)-1-[2-fluoro-3-(trifluoromethyl)phenyl]ethyl]-1-[6-(2-methylpyrazol-3-yl)pyridazin-4-yl]-6-oxo-pyridazine-3-carboxamide]",,
< 50 nM,< 50 nM,"C[C@@H](NC(=O)c1ccc(=O)n(-c2cncc(-c3cnnn3C3CCN(S(C)(=O)=O)CC3)c2)n1)c1cccc(C(F)(F)F)c1F [Example 20-8, (R)-N-(1-(2-fluoro-3-(trifluoromethyl)phenyl)ethyl)-1-(5-(1-(1-(methylsulfonyl)piperidine-4-yl)-1H-1,2,3-triazol-5-yl)pyridin-3-yl)-6-oxo-1,6-dihydropyridazine-3-carboxamide]",,
< 50 nM,< 50 nM,"COC(=O)N1CC(n2nncc2-c2cncc(-n3nc(C(=O)N[C@H](C)c4cccc(C(F)(F)F)c4F)ccc3=O)c2)C1 [Example 20-11, methyl (R)-3-(5-(5-(3-((1-(2-fluoro-3-(trifluoromethyl)phenyl)ethyl)carbamoyl)-6-oxopyridazin-1(6H)-yl)pyridin-3-yl)-1H-1,2,3-triazol-1-yl)azetidine-1-carboxylate]",,
50 to 150 nM,< 50 nM,"C[C@@H](NC(=O)c1ccc(=O)n(-c2cncc(-c3cnnn3C3COC3)c2)n1)c1cccc(C(F)(F)F)c1F [Example 1-57, 1-[5-[1-(oxetan-3-yl)triazol-5-yl]-3-pyridyl]-6-oxo-N-[(1R)-1-[2-fluoro-3-(trifluoromethyl)phenyl]ethyl]pyridazine-3-carboxamide]",,
< 50 nM,< 50 nM,"C[C@@H](NC(=O)c1ccc(=O)n(-c2cncc(-c3cnnn3C3CN(C)C3)c2)n1)c1cccc(C(F)(F)F)c1F [Example 20, N-{(R)-1-[2-fluoro-3-(trifluoromethyl)phenyl]ethyl}-1-{5-[1-(1-methyl-3-azetidinyl)-1H-1,2,3-triazol-5-yl]-3-pyridyl}-6-oxo-1,6-dihydropyridazine-3-carboxamide]",,
50 to 150 nM,< 50 nM,"C[C@@H](NC(=O)c1ccc(=O)n(-c2cncc(-c3cnnn3C)c2)n1)c1cccc(C(F)(F)CF)c1F [Example 1-8, (R)-N-(1-(2-fluoro-3-(1,1,2-trifluoroethyl)phenyl)ethyl)-1-(5-(1-methyl-1H-1,2,3-triazol-5-yl)pyridin-3-yl)-6-oxo-1,6-dihydropyridazine-3-carboxamide]",,
